This is an account of results in US11865128B2, “Aminoglycosides and uses thereof in treating genetic disorders” (Technion Research & Development Foundation Limited, priority 2010, dated 2024).

A short description of data set [1]: Cell toxicity LC50 in HEK-293 cells. Type of data set: cell-based. The conditions noted are these: human, read-out: Cell toxicity LC50 HEK-293. As for the experimental part: (§1) In order to ensure suitable cell viability for each of the tested compounds at the concentrations tested, cell toxicity was evaluated for each compound by measuring the half-maximal-lethal concentration value (LC50 values) in HEK-293 and HFF (human foreskin fibroblasts) cells.
(§2) The percentages of cell viability were calculated as the ratio between the numbers of living cells in cultures grown in the presence of the tested compounds, versus cultures grown under the identical protocol but without the tested compound. The results represent averages of at least three independent experiments.
(§3) The half-maximal lethal concentration (LC50) values were obtained from fitting concentration-response curves to the data of at least three independent experiments, using GraFit 5 software.

The subject of the next data set is E. coli R477/100. Kind of data set: Antibacterial activity MIC, double-microdilution. Conditions: Escherichia coli. Type of data set: cell-based, Escherichia coli. On the technique in general: Broth dilution looks for growth in wells or tubes with falling amounts of substance.
Data set [2] has as its system Prokaryotic system (prokaryotic ribosome). The conditions noted are these: shown previously; cited from earlier work.
Data set [3] can be described thus: Cell toxicity LC50 in HFF cells. The conditions noted are these: human, read-out: Cell toxicity LC50 HFF. Type of data set: cell-based. As for the experimental part: as §1, §2, §3
The next data set relates to B. subtilis ATCC6633. Kind of data set: Antibacterial activity MIC, double-microdilution. Type of data set: cell-based, Bacillus subtilis. Conditions: Bacillus subtilis.
The subject of data set [4] is nonsense mutation constructs R3X, R245X, Q70X, W1282X, G542X in HEK-293 cells. Kind of data set: Ex vivo stop codon readthrough assay, p2luc constructs transfected to HEK-293 cells. Type of data set: cell-based, human. Conditions: ex vivo in HEK-293, all the mutations tested, FIGS. 4, 8-10. As for the experimental part:
For the ex vivo readthrough assays, the constructs harboring the R3X, R245X, Q70X and W1282X mutations were transfected to HEK-293 cells with Lipofectamine 2000 (Invitrogen) and addition of the tested compounds was performed 6 hours post transfection. The cells were harvested following 16 hours of incubation with the tested aminoglycosides. Stop codon readthrough was calculated as previously described (see, Grentzmann, G. et al., RNA, 1998, 4, p. 479).
The constructs were transfected into a human embryonic kidney cell line (HEK-293) and incubated with varying concentrations of NB122, NB123, NB54 and the control drug gentamicin, and the results are presented in FIGS. 4A-D.
As described hereinabove, the constructs of p2luc plasmid harboring the R3X, R245X, Q70X and W1282X mutations were transfected to HEK-293 cells using lipofectamine2000 and the tested compounds were added 6 hours post transfection. Cells were harvested after 16 hours incubation and luciferase activity was determined using the dual luciferase reporter assay system (Promega™). Stop codon readthrough was calculated as described previously, and the results are averages of at least three independent experiments.

In data set [5] the target is Eukaryotic system (eukaryotic cytoplasmic ribosome). Kind of data set: Eukaryotic translation inhibition, coupled transcription/translation, luciferase detection. Type of data set: biochemical. The conditions noted are these: for Prokaryotic versus Eukaryotic selectivity IC50^Euk/IC50^Pro: ratio of eukaryotic to prokaryotic translation inhibition IC50. The text has this: Prokaryotic and eukaryotic translation inhibition was quantified in coupled transcription/translation assays by using active luciferase detection, performed as described hereinabove. […] In all biological tests, all tested aminoglycosides were in their sulfate salt forms. The concentrations reported refer to that of the free amine form of each aminoglycoside.
(§4) In all biological experiments conducted, all tested aminoglycosides were in their sulfate salt forms. The concentrations reported in Table 3 refer to that of the free amine form of each aminoglycoside. Prokaryotic and eukaryotic translation inhibition was quantified in coupled transcription/translation assays as previously described. The half-maximal concentration (IC50) values were obtained from fitting concentration response curves to the data of at least three independent experiments, using GraFit 5 software.

Data set [6] concerns the target Prokaryotic system (prokaryotic ribosome). Kind of data set: Prokaryotic translation inhibition, coupled transcription/translation, luciferase detection. In kind it is biochemical. The procedure:
Prokaryotic and eukaryotic translation inhibition was quantified in coupled transcription/translation assays by using active luciferase detection, performed as described hereinabove. […] All the experiments were performed in duplicates and analogous results were obtained in three different experiments. In all biological tests, all tested aminoglycosides were in their sulfate salt forms. The concentrations reported refer to that of the free amine form of each aminoglycoside.
as §4, with “software. All the experiments were performed in duplicates and analogous results were obtained in three different experiments.” for “software.”

Another data set concerns human fibroblast cells. The conditions noted are these: background; cited from earlier work.
For data set [7], the system named is nonsense mutation constructs R3X, R245X, G542X, W1282X, Q70X, R3381X (PCDH15, CFTR, IDUA, Dystrophin). Kind of data set: In vitro stop codon readthrough assay, p2Luc dual luciferase, TNT reticulocyte lysate. In kind it is biochemical. The conditions noted are these: cell-free, mutations tested; comparison in words from FIGS. 2, 3, 5-7. The text has this: DNA fragments derived from PCDH15, CFTR, Dystrophin and IDUA cDNAs, including the tested nonsense mutation or the corresponding wild type (wt) codon, and four to six upstream and downstream flanking codons were created by annealing following pairs of complementary oligonucleotides:
The fragments were inserted in frame into the polylinker of the p2Luc plasmid between either BamHI and SacI (p.R3X and p.R245X), or SalI and SacI (all the rest) restriction sites.
For the in vitro readthrough assays, the obtained plasm ids, with addition of the tested aminoglycosides were transcribed and translated using the TNT Reticulocyte Lysate Quick Coupled Transcription/Translation System. Luciferase activity was determined after 90 minutes of incubation at 30° C., using the Dual Luciferase Reporter Assay System (Promega™).
Initially, the influence of the chiral C5″-methyl group on readthrough potential was evaluated on the pseudo-trisaccharides NB118 and NB119 by using a dual luciferase reporter assay system as described hereinabove. Briefly, DNA fragments were cloned between BamHI and SacI restriction sites of the p2luc vector and the obtained constructs were transcribed and translated using TNT quick coupled transcription/translation system. The amount of the translated products was evaluated using the dual luciferase reporter assay system and used to calculate the suppression level.

The mark [8] stands for this setting: Table 3, read-out: Translation Inhibition IC50^Euk.
Setting [9] is: Table 3, read-out: Translation Inhibition IC50^Pro.
[10] abbreviates: Table 2, read-out: Translation Inhibition Eukaryotic System IC50.
The mark [11] stands for this setting: Table 2, read-out: Translation Inhibition Prokaryotic system IC50.

In brackets after ≈: the same amount, converted by molar mass. Read-outs that look alike come from different tables or passages of the source. A value given as a limit tells only on which side of the number the result lay.

The term IC50 denotes the concentration that inhibits the measured activity by half. Consider `NCC[C@H](O)C(=O)N[C@@H]1CC(N)[C@@H](O[C@H]2OC(CO)[C@@H](O)[C@H](O)C2N)[C@H](O[C@@H]2O[C@H](CN)[C@H](O)C2O)C1O` (stereo partly drawn) [NB54, reference compound], for which the CC50 in [1] (HEK-293 cells, Table 1) is 6100 µM; in data set [3] (HFF (human foreskin fibroblast) cells, Table 1) it was 7800 ± 400 µM. In addition, the MIC in the data set with E. coli R477/100 (R477/100, Table 1, read-out: Antibacterial activity MIC E. coli R477/100) came to 588 µM (≈ 327 µg/mL); in the data set with B. subtilis ATCC6633 (ATCC6633, Table 1, free amine concentration, sulfate salts tested, read-out: Antibacterial activity MIC B. subtilis ATCC6633), 70 µM. Also, the “weaker inhibitors of prokaryotic translation than gentamicin and paromomycin” value in data set [2] is on record as “about 10 fold”. The “observed efficacy of aminoglycoside-induced readthrough, order” value in [4] was “NB122≥NB123>NB54>gentamicin”. Besides, the IC50 is 24 µM in [5] (Table 1, read-out: Translation inhibition Eukaryotic System IC50); 24 ± 1 µM in [5] (setting [8]); 0.16 ± 0.02 µM in data set [6] (Table 1, read-out: Translation inhibition Prokaryotic system IC50); 0.16 ± 0.02 µM in data set [6] (setting [9]). Further, in data set [5], the “Prokaryotic versus Eukaryotic selectivity IC50^Euk/IC50^Pro” value is recorded as 151.
As for `C[C@@H](O)C1O[C@H](O[C@@H]2C(N)C[C@@H](NC(=O)[C@@H](O)CCN)[C@@H](O)C2O[C@@H]2O[C@H](CN)[C@H](O)C2O)[C@@H](N)C(O)[C@@H]1O` (stereo partly drawn) [NB84, reference compound], the CC50 in data set [1] (HEK-293 cells, Table 2) was determined as 5770 ± 680 µM; in data set [3] (HFF (human foreskin fibroblast) cells, Table 2), 16300 ± 470 µM. Further, the MIC was 556 µM (≈ 317 µg/mL) in the data set on E. coli R477/100 (R477/100, Table 2, read-out: Antibacterial activity MIC E. coli R477/100) and 70 µM (≈ 39.9 µg/mL) with B. subtilis ATCC6633 (ATCC6633, Table 2, read-out: Antibacterial activity MIC B. subtilis ATCC6633). In addition, in [2], the “weaker inhibitors of prokaryotic translation than gentamicin and paromomycin” value is “about 10 fold”. For the same compound, in [4], the “observed efficacy of aminoglycoside-induced readthrough, order” value was “NB127 NB128>NB84>gentamicin”. For the same compound, the IC50 in [5] (setting [10]) is 2.8 ± 0.3 µM; in [5] (setting [8]) it was 2.8 ± 0.3 µM; in [6] (setting [11]) it was 0.98 ± 0.07 µM; in data set [6] (setting [9]), 0.98 ± 0.07 µM. For the same compound, the “Prokaryotic versus Eukaryotic selectivity IC50^Euk/IC50^Pro” value in data set [5] is on record as 2.9.
In the case of `CN[C@H]1[C@@H](O)C(OC2[C@H](N)CC(N)[C@@H](O[C@H]3OC(C(C)O)[C@@H](O)[C@H](O)C3N)[C@@H]2O)OCC1(C)O` (stereo partly drawn) [G418, reference compound], the values for the CC50 in [1] (Table 2) and in data set [3] (Table 2) were 1310 ± 60 µM and 1590 ± 140 µM, respectively. For the same compound, the MIC with E. coli R477/100 (R477/100, read-out: Antibacterial activity MIC E. coli R477/100) was 9 µM (≈ 4.47 µg/mL); in the data set with B. subtilis ATCC6633 (ATCC6633, read-out: Antibacterial activity MIC B. subtilis ATCC6633), below 1.25 µM. In the data set with human fibroblast cells, the “LD50 against human fibroblast cells” value was 0.04 mg/mL. Besides, the “more selective to prokaryotic versus eukaryotic ribosome” value in data set [5] is 225 fold. Moreover, the IC50 in data set [5] (setting [10]) amounted to 2 ± 0.3 µM; in [5] (setting [8]) it was 2 µM; in [6] (setting [11]), 0.009 ± 0.002 µM; in data set [6] (setting [9]), 0.009 ± 0.002 µM. Further, in data set [7], the “in vitro readthrough activity (stop codon suppression level)” value was “the strongest readthrough inducer”.
